Each structure is given as a SMILES string.

The values below come from US20090069373A1, “Quinoline Acids” (Wyeth, priority 2007, published 2009).

One assay concerns the target T1, human LXRβ (Homo sapiens, UniProt P55055).
T1 construct: biotin (biotinylated; biotinylation tag not described); made in house; host or cells: E. coli
T1 sequence (P55055 1-460): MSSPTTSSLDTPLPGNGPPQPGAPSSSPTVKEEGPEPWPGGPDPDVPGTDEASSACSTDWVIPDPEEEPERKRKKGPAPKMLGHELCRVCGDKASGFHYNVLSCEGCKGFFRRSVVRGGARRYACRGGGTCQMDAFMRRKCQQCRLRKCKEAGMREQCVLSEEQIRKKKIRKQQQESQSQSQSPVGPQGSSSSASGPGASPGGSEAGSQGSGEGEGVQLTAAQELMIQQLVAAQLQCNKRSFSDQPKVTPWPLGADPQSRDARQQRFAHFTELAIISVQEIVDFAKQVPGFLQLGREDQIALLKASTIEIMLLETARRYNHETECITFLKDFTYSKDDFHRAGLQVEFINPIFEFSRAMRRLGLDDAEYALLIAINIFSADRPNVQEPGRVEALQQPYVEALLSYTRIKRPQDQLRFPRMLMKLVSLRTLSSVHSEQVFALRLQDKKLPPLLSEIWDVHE
Nature of the assay: Ligand-binding test procedure for human LXRβ (3H T0901317 competition, flash plates). The settings on record: for IC50: biotinylated hLXRβ, tracer 3H T0901317; for Binding ratio a/b: IC50 (μM) LXRα binding/IC50 (μM) LXRβ binding. Here is the method:
Ligand-Binding Test Procedure for Human LXRβ.
Receptor source: E. coli extract from cells expressing biotinylated hLXRβ. Extract was made in a similar buffer as above, but with 50 mM TRIS.
(§1) Washed streptavidin and coated flash plates with wash buffer.
(§2) Diluted receptor extract to give Bmax ˜4000 cpm and add to the wells.
(§3) Wrapped the plates in aluminum foil and stored them at +4° C. over night.
(§4) Made a dilution series in DMSO of the test ligands.
(§5) Made a 5 nM solution of the radioactive tracer in buffer.
(§6) Mixed 250 μl diluted tracer with 5 μl of the test ligand from each concentration of the dilution series.
(§7) Washed the receptor-coated flash plates.
(§8) Added 200 μl per well of the ligand/radiolabel mixture to the receptor-coated flash plates.
(§9) Wrapped the plates in aluminum foil and incubate at +4° C. over night.
(§10) Aspirated wells, and wash the flashed plates. Sealed the plate.
(§11) Measured the remaining radioactivity in the plate.

For a further assay, the target named is T2, human LXRα (Homo sapiens, UniProt Q13133).
T2 construct: biotin (biotinylated; biotinylation tag not described); made in house; host or cells: E. coli
T2 sequence (Q13133 1-447): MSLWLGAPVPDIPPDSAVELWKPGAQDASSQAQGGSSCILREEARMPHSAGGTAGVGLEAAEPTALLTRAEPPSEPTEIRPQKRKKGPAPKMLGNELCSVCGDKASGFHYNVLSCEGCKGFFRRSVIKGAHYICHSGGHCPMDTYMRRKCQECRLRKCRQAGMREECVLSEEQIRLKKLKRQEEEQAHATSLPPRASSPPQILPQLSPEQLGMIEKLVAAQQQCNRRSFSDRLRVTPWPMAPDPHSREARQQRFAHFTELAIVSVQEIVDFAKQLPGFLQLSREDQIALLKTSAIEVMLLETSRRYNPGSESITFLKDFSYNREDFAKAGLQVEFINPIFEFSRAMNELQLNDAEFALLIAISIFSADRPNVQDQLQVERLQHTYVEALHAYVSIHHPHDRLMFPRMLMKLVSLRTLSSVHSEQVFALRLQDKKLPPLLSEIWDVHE
Nature of the assay: Ligand-binding test procedure for human LXRα (3H T0901317 competition, flash plates). The following applies: biotinylated hLXRα, tracer 3H T0901317. Here is the method: Ligand-Binding Test Procedure for Human LXRα.
Receptor source: E. coli extract from cells expressing biotinylated hLXRα. Extract was made in a similar buffer as above, but with 50 mM TRIS.
as §1, §2, §3, §4, §5, §6, §7, §8, §9, §10, §11

Take `O=C(O)Cc1ccc(NCc2cncc(-c3ccnc4c(C(F)(F)F)cccc34)c2)cc1` [Example 120, {4-[({5-[8-(trifluoromethyl)quinolin-4-yl]pyridin-3-yl}methyl)amino]phenyl}acetic acid]: the IC50 at human LXRβ and at human LXRα was over 1000 nM in each case.

With `O=C(O)Cc1cccc(NCc2cccc(-c3c(Cc4ccccc4)cnc4c(C(F)(F)F)cccc34)c2)c1` [Example 30, [3-({3-[3-benzyl-8-(trifluoromethyl)quinolin-4-yl]benzyl}amino)phenyl]acetic acid], on human LXRβ, the Binding ratio a/b was 8. The IC50 was determined as 9 nM at human LXRβ and 72 nM on human LXRα.

For the compound `Cc1cc(CC(=O)O)cc(NCc2cccc(-c3c(C)cnc4c(C(F)(F)F)cccc34)c2)c1C` [Example 88, [3,4-dimethyl-5-({3-[3-methyl-8-(trifluoromethyl)quinolin-4-yl]benzyl}amino)phenyl]acetic acid], at human LXRβ, the Binding ratio a/b is listed as 2. The IC50 at human LXRβ came to 12700 nM; at human LXRα it was 31600 nM.

Take `O=C(O)Cc1cccc2cc(OCc3cccc(-c4ccnc5c(C(F)(F)F)cccc45)c3)ccc12` [Example 68, [6-({3-[8-(trifluoromethyl)quinolin-4-yl]benzyl}oxy)-1-naphthyl]acetic acid]: at human LXRβ, the Binding ratio a/b was 4 and the IC50 worked out at 535 nM. At human LXRα, this compound showed an IC50 of 2290 nM.

Consider `O=C(O)C1CCN(C(=O)c2cccc(COc3cccc(-c4c(Cc5ccccc5)cnc5c(C(F)(F)F)cccc45)c3)c2)CC1` [Example 40, 1-[3-({3-[3-benzyl-8-(trifluoromethyl)quinolin-4-yl]phenoxy}methyl)benzoyl]piperidine-4-carboxylic acid], for which, at human LXRβ, the Binding ratio a/b is given as 7 and the IC50 was found to be 84 nM. For the same compound, the IC50 on human LXRα was 559 nM.

In the case of `Cc1cc(C(=O)O)cc(C)c1OCc1cccc(-c2c(Cc3ccccc3)cnc3c(C(F)(F)F)cccc23)c1` [Example 26, 4-({3-[3-benzyl-8-(trifluoromethyl)quinolin-4-yl]benzyl}oxy)-3,5-dimethylbenzoic acid], on human LXRβ, the Binding ratio a/b is 10 and the IC50 came to 32 nM. Also, the IC50 on human LXRα turned out to be 325 nM.

Regarding `Cc1c(CC(=O)O)ccc(NCc2cncc(-c3c(Cc4ccccc4)cnc4c(C(F)(F)F)cccc34)c2)c1C` [Example 10, {4-[({5-[3-Benzyl-8-(trifluoromethyl)quinolin-4-yl]pyridin-3-yl}methyl)amino]-2,3-dimethylphenyl}acetic acid], at human LXRβ, the Binding ratio a/b was found to be 22 and the IC50 is 28 nM. Also, the IC50 on human LXRα stood at 615 nM.

Consider `Cn1cc(C(=O)O)c2cc(NCc3cccc(-c4c(Cc5ccccc5)cnc5c(C(F)(F)F)cccc45)c3)ccc21` [Example 79, 5-({3-[3-benzyl-8-(trifluoromethyl)quinolin-4-yl]benzyl}amino)-1-methyl-1H-indole-3-carboxylic acid], for which the Binding ratio a/b on human LXRβ is on record as 3. Moreover, the IC50 is 629 nM at human LXRβ and 1820 nM at human LXRα.

`O=C(O)CC1=CCCc2c(OCc3cccc(-c4c(Cc5ccccc5)cnc5c(C(F)(F)F)cccc45)c3)cccc21` [Example 19, [5-({3-[3-benzyl-8-(trifluoromethyl)quinolin-4-yl]benzyl}oxy)-3,4-dihydronaphthalen-1-yl]acetic acid]: at human LXRβ, the Binding ratio a/b is 16 and the half-maximal inhibitory concentration (IC50) turned out to be 8 nM. The compound also yielded an IC50 at human LXRα of 133 nM.

Regarding `Cc1cc(NCc2ccc(-c3c(Cc4ccccc4)cnc4c(C(F)(F)F)cccc34)s2)c(C)cc1CC(=O)O` [Example 47, {4-[({5-[3-benzyl-8-(trifluoromethyl)quinolin-4-yl]-2-thienyl}methyl)amino]-2,5-dimethylphenyl}acetic acid], the Binding ratio a/b at human LXRβ is listed as 6. Also, the figures for the 50% inhibitory concentration (IC50) on human LXRβ and on human LXRα were 2 nM and 13 nM, respectively.

With `O=C(O)c1ccc2ccccc2c1OCc1cccc(-c2c(Cc3ccccc3)cnc3c(C(F)(F)F)cccc23)c1` [Example 95, 1-({3-[3-benzyl-8-(trifluoromethyl)quinolin-4-yl]benzyl}oxy)-2-naphthoic acid], at human LXRβ, the Binding ratio a/b is listed as 2 and the IC50 is 1030 nM. On human LXRα, this compound returned an IC50 of 2220 nM.

`Cc1c(CC(=O)O)ccc(NCc2cccc(-c3ccnc4c(C(F)(F)F)cccc34)c2)c1C` [Example 22, [2,3-dimethyl-4-({3-[8-(trifluoromethyl)quinolin-4-yl]benzyl}amino)phenyl]acetic acid]: on human LXRβ, the Binding ratio a/b worked out at 13. Besides, the IC50 turned out to be 1370 nM at human LXRβ and 17500 nM at human LXRα.

In the case of `O=C(O)c1ccc(F)c(NCc2cccc(-c3c(Cc4ccccc4)cnc4c(C(F)(F)F)cccc34)c2)c1` [Example 52, 3-({3-[3-benzyl-8-(trifluoromethyl)quinolin-4-yl]benzyl}amino)-4-fluorobenzoic acid], at human LXRβ, the Binding ratio a/b is given as 6. The results for the IC50 on human LXRβ and at human LXRα were 249 nM and 1380 nM, respectively.

`O=C(O)c1cc(Cl)c(OCc2cccc(-c3c(Cc4ccccc4)cnc4c(C(F)(F)F)cccc34)c2)c(Cl)c1` [Example 67, 4-({3-[3-benzyl-8-(trifluoromethyl)quinolin-4-yl]benzyl}oxy)-3,5-dichlorobenzoic acid]: at human LXRβ, the Binding ratio a/b was 4 and the IC50 amounted to 47 nM. For the same compound, at human LXRα, the IC50 was determined as 203 nM.

Take `COc1cc(COc2cccc(-c3c(Cc4ccccc4)cnc4c(C(F)(F)F)cccc34)c2)ccc1C(=O)O` [Example 28, 4-({3-[3-benzyl-8-(trifluoromethyl)quinolin-4-yl]phenoxy}methyl)-2-methoxybenzoic acid]: at human LXRβ, the Binding ratio a/b is 9 and the IC50 was 7 nM. Further, the IC50 on human LXRα is 66 nM.

For `CC(C)C[C@H](NC(=O)c1cccc(COc2cccc(-c3c(Cc4ccccc4)cnc4c(C(F)(F)F)cccc34)c2)c1)C(=O)O` [Example 96, N-[3-({3-[3-benzyl-8-(trifluoromethyl)quinolin-4-yl]phenoxy}methyl)benzoyl]leucine], on human LXRβ, the Binding ratio a/b amounted to 2 and the IC50 came out at 546 nM. This compound also yielded an IC50 at human LXRα of 1160 nM.

As to `O=C(O)c1ccc2cc(NCc3cccc(-c4ccnc5c(C(F)(F)F)cccc45)c3)ccc2c1` [Example 46, 6-({3-[8-(trifluoromethyl)quinolin-4-yl]benzyl}amino)-2-naphthoic acid], on human LXRβ, the Binding ratio a/b worked out at 6 and the IC50 is 1300 nM. At human LXRα, this compound yielded an IC50 of 8000 nM.

Turning to `O=C(O)c1ccc(NCc2cccc(-c3c(Cc4ccccc4)cnc4c(C(F)(F)F)cccc34)c2)c(OC(F)(F)F)c1` [Example 110, 4-({3-[3-benzyl-8-(trifluoromethyl)quinolin-4-yl]benzyl}amino)-3-(trifluoromethoxy)benzoic acid], at human LXRβ, the Binding ratio a/b was found to be 1 and the IC50 was determined as 1580 nM. Moreover, the IC50 on human LXRα is 2040 nM.

Regarding `Cc1cc(C(=O)O)ccc1NCc1cccc(-c2c(Cc3ccccc3)cnc3c(C(F)(F)F)cccc23)c1` [Example 53, 4-({3-[3-benzyl-8-(trifluoromethyl)quinolin-4-yl]benzyl}amino)-3-methylbenzoic acid], the Binding ratio a/b at human LXRβ is reported as 5. For the same compound, the values for the IC50 at human LXRβ and on human LXRα were 95 nM and 510 nM, respectively.

Take `O=C(O)c1cccc2c(NCc3cncc(-c4c(Cc5ccccc5)cnc5c(C(F)(F)F)cccc45)c3)cccc12` [Example 31, 5-[({5-[3-benzyl-8-(trifluoromethyl)quinolin-4-yl]pyridin-3-yl}methyl)amino]-1-naphthoic acid]: on human LXRβ, the Binding ratio a/b came to 8 and the IC50 was 210 nM. This compound also came in with an IC50 at human LXRα of 1740 nM.

With `C#CCC(C(=O)O)c1cccc2c(OCc3cccc(-c4ccnc5c(C(F)(F)F)cccc45)c3)cccc12` (centres unmarked) [Example 66, 2-[5-({3-[8-(trifluoromethyl)quinolin-4-yl]benzyl}oxy)-1-naphthyl]pent-4-ynoic acid], at human LXRβ, the Binding ratio a/b was 4 and the IC50 turned out to be 454 nM. The IC50 at human LXRα stood at 1950 nM.
